Here are results for 25 compounds from ChEMBL document CHEMBL5291721, “A preclinical secondary pharmacology resource illuminates target-adverse drug reaction associations of marketed drugs” (Nat Commun, 2023).

Some targets named below: Estrogen receptor beta (Homo sapiens, UniProt Q92731); Glucagon receptor (Homo sapiens, UniProt P47871); Substance-P receptor (Homo sapiens, UniProt P25103).
Assay [1] concerns the target Beta-1 adrenergic receptor (Homo sapiens, UniProt P08588). The assay is classed as functional, cell-based.
The target in assay [2] is T1, Alpha-2A adrenergic receptor (Homo sapiens, UniProt P08913).
T1 sequence (P08913 whole entry): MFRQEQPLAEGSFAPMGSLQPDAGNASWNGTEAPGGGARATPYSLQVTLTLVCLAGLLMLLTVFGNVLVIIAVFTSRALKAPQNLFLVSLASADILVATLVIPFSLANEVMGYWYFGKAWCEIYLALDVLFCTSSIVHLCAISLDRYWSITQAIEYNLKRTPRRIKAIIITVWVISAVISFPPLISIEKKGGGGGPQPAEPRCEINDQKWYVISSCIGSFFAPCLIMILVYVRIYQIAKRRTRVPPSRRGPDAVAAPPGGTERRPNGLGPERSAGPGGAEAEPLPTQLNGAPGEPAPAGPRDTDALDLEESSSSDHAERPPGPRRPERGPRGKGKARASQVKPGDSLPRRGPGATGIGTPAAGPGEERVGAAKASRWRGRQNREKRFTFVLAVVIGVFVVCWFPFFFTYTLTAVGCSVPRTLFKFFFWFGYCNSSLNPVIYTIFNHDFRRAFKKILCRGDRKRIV

Assay [3] addresses T2, D(1A) dopamine receptor (Homo sapiens, UniProt P21728).
The target of assay [4] is T3, Neuropeptide Y receptor type 2 (Homo sapiens, UniProt P49146).
T3 sequence (P49146 whole entry): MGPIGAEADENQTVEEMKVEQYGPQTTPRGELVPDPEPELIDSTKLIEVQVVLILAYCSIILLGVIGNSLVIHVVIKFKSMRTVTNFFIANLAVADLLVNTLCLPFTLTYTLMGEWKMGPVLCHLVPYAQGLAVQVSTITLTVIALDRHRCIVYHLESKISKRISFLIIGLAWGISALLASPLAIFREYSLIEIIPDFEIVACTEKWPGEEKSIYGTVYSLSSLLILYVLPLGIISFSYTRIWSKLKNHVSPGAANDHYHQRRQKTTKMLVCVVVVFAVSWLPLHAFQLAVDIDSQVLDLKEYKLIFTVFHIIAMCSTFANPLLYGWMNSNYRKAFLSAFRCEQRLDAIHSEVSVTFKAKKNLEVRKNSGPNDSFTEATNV

Assay [5] has as its target Voltage-dependent N-type calcium channel subunit alpha-1B (Rattus norvegicus, UniProt Q02294). It counts as functional.
Assay [6] deals with T2, D(1A) dopamine receptor. This is another data set of the same source.
For assay [7], the target named is Voltage-dependent L-type calcium channel subunit alpha-1C (Homo sapiens, UniProt Q13936). It counts as functional, cell-based.
Assay [8] addresses Gamma-aminobutyric acid type B receptor subunit 1 (Homo sapiens, UniProt Q9UBS5).
The target of a further assay is T4, D(4) dopamine receptor (Homo sapiens, UniProt P21917).
T4 sequence (P21917 whole entry): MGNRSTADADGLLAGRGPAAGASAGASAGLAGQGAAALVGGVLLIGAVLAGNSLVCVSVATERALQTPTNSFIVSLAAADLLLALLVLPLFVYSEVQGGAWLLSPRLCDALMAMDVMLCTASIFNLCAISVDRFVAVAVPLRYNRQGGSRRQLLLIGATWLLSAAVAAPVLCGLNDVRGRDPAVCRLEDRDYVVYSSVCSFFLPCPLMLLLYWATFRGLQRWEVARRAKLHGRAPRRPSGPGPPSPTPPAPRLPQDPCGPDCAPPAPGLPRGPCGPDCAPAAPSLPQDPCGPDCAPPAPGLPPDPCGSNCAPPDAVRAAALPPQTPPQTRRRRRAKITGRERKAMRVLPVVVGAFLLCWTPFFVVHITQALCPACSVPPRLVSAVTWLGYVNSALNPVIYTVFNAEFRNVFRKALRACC

In assay [9] the target is Hydroxycarboxylic acid receptor 2 (Homo sapiens, UniProt Q8TDS4).
The target of another assay is Cannabinoid receptor 1 (Homo sapiens, UniProt P21554). It counts as functional.
Assay [10] deals with 5-hydroxytryptamine receptor 6 (Homo sapiens, UniProt P50406).
The target of assay [11] is 5-hydroxytryptamine receptor 7 (Homo sapiens, UniProt P34969).
The target in assay [12] is T5, Muscarinic acetylcholine receptor M2 (Homo sapiens, UniProt P08172).
T5 sequence (P08172 whole entry): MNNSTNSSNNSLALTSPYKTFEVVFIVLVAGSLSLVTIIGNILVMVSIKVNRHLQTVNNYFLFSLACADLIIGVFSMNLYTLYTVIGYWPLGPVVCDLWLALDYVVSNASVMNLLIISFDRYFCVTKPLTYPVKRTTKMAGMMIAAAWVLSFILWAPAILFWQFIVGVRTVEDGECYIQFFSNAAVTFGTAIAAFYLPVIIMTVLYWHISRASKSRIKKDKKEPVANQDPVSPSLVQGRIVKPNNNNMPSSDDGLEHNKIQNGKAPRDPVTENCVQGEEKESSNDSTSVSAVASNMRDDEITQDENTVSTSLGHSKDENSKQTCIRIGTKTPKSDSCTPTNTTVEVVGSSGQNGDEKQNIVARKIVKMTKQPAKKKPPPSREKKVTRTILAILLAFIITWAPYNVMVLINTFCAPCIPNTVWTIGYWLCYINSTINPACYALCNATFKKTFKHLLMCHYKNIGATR

The target in assay [13] is T2, D(1A) dopamine receptor. The source holds these as a separate data set.
Assay [14] deals with T6, Histamine H1 receptor (Homo sapiens, UniProt P35367). It counts as functional, cell-based.
Assay [15] addresses T6, Histamine H1 receptor. It counts as functional, cell-based. This is another data set of the same source.
Further: assay procedure not described here.

Sequence of Voltage-dependent N-type calcium channel subunit alpha-1B (Q02294 whole entry): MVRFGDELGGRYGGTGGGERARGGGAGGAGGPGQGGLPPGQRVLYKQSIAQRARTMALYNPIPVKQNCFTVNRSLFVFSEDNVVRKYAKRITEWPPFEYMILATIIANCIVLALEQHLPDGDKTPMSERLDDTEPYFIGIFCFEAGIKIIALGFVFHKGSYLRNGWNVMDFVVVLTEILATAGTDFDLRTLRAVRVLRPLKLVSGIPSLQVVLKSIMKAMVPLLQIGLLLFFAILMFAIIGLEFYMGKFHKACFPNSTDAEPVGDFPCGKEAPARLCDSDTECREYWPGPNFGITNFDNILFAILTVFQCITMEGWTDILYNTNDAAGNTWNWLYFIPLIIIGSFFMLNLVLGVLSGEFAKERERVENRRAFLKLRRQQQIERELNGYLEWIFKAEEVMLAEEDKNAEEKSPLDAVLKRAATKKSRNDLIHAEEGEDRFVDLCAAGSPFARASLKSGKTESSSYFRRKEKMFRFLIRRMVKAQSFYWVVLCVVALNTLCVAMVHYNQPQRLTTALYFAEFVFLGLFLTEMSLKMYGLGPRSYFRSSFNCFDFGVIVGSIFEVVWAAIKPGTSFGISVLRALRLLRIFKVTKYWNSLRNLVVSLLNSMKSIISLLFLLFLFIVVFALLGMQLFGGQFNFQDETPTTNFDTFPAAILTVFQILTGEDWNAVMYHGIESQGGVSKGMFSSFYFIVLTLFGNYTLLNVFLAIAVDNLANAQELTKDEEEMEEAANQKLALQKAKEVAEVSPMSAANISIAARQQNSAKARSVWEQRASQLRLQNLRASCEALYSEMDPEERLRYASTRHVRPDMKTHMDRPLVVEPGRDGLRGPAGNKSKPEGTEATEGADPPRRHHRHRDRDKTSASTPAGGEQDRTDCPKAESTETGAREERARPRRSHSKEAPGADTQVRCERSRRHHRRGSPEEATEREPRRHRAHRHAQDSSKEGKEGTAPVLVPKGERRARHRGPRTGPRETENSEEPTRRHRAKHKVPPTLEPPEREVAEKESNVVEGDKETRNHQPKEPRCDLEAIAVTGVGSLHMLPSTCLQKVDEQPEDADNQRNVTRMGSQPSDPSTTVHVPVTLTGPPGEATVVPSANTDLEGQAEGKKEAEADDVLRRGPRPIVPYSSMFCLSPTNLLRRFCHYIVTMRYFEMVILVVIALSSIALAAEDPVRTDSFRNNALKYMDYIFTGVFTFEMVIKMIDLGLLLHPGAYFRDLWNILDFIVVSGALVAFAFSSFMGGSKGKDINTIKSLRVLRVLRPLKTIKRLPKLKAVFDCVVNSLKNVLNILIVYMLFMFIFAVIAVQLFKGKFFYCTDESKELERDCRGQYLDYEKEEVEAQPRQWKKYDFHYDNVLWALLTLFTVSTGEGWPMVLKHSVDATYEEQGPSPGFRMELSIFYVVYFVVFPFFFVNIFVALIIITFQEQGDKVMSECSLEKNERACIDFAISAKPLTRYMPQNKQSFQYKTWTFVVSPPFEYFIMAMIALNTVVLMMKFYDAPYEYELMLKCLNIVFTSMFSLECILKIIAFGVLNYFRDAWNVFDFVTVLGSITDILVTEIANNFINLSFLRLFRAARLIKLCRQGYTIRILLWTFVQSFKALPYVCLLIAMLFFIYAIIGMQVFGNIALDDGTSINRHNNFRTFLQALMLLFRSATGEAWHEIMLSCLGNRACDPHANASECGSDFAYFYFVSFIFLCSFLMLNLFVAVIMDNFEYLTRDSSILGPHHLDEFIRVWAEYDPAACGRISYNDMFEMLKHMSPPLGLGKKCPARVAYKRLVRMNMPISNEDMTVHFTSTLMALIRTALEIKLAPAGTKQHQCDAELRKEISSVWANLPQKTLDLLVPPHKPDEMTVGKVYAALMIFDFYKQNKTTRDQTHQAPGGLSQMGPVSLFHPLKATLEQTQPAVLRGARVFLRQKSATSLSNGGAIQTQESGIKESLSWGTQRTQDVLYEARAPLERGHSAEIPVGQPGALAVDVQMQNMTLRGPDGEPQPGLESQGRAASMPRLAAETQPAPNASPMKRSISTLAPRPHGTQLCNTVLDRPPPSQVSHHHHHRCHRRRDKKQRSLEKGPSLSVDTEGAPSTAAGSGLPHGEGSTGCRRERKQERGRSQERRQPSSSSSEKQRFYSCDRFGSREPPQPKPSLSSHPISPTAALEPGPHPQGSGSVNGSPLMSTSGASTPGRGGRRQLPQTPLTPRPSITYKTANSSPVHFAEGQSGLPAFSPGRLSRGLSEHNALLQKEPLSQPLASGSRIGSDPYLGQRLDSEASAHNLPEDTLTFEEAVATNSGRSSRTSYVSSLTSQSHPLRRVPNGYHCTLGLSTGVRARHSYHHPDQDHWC
Sequence of Cannabinoid receptor 1 (P21554 whole entry): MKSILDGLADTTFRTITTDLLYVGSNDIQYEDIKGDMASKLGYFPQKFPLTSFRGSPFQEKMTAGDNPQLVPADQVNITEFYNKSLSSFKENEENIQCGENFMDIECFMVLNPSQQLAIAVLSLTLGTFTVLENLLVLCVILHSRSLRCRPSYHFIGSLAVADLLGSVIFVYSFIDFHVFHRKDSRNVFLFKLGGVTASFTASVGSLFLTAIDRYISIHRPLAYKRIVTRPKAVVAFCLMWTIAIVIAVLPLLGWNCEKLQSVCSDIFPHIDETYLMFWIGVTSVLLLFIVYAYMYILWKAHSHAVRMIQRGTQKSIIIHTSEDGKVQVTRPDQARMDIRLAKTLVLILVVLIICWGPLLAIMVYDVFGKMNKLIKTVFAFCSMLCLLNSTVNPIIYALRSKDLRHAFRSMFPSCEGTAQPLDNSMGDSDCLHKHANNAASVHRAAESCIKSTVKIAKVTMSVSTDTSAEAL
Sequence of Voltage-dependent L-type calcium channel subunit alpha-1C (Q13936 whole entry): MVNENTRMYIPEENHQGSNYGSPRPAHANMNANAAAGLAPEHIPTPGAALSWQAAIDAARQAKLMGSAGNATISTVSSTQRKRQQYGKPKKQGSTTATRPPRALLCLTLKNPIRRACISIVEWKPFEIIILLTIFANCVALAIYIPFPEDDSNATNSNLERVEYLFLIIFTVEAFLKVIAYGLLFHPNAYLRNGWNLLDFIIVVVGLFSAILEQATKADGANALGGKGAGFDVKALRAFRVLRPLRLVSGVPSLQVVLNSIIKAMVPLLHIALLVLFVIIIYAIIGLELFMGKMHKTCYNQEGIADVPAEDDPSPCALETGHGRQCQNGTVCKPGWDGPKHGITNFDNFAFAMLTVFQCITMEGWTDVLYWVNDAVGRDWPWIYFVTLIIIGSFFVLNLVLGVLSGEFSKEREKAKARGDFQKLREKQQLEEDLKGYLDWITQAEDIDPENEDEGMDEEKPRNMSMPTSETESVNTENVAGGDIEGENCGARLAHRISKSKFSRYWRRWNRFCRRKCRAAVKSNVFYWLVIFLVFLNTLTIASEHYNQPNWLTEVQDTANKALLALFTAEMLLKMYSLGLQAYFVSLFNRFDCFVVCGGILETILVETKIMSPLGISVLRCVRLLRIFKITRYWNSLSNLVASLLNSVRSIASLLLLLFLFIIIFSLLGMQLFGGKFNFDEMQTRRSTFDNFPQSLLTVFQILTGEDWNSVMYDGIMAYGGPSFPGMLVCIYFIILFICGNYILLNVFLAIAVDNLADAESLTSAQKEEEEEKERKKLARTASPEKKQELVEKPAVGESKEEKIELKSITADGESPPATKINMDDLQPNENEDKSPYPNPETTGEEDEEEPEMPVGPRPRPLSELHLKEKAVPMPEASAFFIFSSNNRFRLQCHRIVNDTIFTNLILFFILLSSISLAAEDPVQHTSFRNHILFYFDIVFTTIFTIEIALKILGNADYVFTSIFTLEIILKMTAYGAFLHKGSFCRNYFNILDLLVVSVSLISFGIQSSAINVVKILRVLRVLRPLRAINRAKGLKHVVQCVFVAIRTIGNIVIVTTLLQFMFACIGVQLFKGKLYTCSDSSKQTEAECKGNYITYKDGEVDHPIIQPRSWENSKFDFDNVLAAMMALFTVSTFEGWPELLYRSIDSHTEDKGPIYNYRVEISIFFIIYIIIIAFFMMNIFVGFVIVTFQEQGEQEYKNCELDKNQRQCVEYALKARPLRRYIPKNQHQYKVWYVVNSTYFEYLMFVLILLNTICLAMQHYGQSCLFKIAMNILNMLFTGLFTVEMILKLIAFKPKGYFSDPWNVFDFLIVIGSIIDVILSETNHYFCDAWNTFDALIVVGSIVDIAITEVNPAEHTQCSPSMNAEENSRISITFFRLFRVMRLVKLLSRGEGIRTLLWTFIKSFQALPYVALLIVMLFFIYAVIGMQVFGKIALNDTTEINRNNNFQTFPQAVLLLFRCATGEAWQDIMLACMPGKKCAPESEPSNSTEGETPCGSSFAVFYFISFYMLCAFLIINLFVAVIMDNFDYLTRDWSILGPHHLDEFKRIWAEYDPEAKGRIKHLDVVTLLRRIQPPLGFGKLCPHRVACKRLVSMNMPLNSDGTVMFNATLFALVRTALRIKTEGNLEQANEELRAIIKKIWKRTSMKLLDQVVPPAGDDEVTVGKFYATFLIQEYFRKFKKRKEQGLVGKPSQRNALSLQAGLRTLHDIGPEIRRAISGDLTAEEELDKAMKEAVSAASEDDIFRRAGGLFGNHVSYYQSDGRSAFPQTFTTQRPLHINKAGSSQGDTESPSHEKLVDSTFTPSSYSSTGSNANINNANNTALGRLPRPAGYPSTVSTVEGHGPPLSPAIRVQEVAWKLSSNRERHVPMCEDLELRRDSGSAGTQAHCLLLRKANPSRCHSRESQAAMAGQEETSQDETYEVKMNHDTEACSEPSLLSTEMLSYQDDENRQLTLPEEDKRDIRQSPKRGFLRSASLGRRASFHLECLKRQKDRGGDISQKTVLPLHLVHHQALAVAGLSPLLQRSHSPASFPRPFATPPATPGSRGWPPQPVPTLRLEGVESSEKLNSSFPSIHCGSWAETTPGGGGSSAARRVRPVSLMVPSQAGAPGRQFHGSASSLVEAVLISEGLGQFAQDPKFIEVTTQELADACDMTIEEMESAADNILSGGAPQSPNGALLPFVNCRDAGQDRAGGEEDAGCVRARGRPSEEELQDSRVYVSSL

As usually defined, the AC50 is the concentration at which the activity in the assay is half-maximal. Consider `CCN(CC)CCn1c(=O)c(Cc2ccc(OC)cc2)nc2ccccc21` [CAROVERINE], for which, in assay [1], the concentration at half-maximal activity (AC50) was greater than 30 µM.

Regarding `CN1CC2c3ccccc3Oc3ccc(Cl)cc3C2C1` (centres undefined) [ASENAPINE], the AC50 stood at 0.0137 µM in assay [2] and 0.01 µM at D(1A) dopamine receptor [3].

With `C[C@]12CCC(=O)C=C1CC[C@H]1[C@@H]3CC[C@](O)(C(=O)CO)[C@@]3(C)C[C@H](O)[C@@]12F` [FLUDROCORTISONE], the AC50 was greater than 30 µM in assay [4]; greater than 30 µM at Estrogen receptor beta; greater than 30 µM on Glucagon receptor; greater than 10 µM in [5]; greater than 10 µM at D(1A) dopamine receptor [6].

On to `Cn1cnc2c(F)c(Nc3ccc(Br)cc3F)c(C(=O)NOCCO)cc21` [BINIMETINIB], for which the AC50 in [7] is greater than 50 µM.

Regarding `Cc1c(C)c2c(c(C)c1O)CCC(C)(COc1ccc(CC3SC(=O)NC3=O)cc1)O2` (centres undefined) [TROGLITAZONE], the AC50 was greater than 30 µM in assay [4], greater than 30 µM at Estrogen receptor beta, greater than 30 µM at Glucagon receptor and greater than 10 µM in assay [8].

For the compound `CN(C)CCC=C1c2ccccc2CCc2ccccc21` [AMITRIPTYLINE], the AC50 on D(4) dopamine receptor was 0.819 µM; in assay [7] it was 32 µM; in assay [4], greater than 30 µM; on Estrogen receptor beta it was greater than 30 µM; on Glucagon receptor it was greater than 30 µM; in [5] it was greater than 10 µM. Also, the AC50 in [9] was greater than 10 µM; on D(1A) dopamine receptor [6], 0.452 µM; at Substance-P receptor it was greater than 10 µM.

On to `CC(=O)Oc1ccccc1C(=O)O` [ASPIRIN], for which the AC50 at D(4) dopamine receptor is greater than 10 µM; in assay [2], greater than 30 µM; on D(1A) dopamine receptor [3], greater than 30 µM; in assay [4], greater than 30 µM; on Estrogen receptor beta, greater than 30 µM; on Glucagon receptor, greater than 30 µM. The AC50 (on Cannabinoid receptor 1; in assay [10]; in [5]; on D(1A) dopamine receptor [6]; in assay [11]; on Substance-P receptor) was greater than 10 µM throughout. Further, the values for the AC50 in [12] and in assay [8] were greater than 30 µM and greater than 10 µM, respectively.

Turning to `CN(C)CCCC1(c2ccc(F)cc2)OCc2cc(C#N)ccc21` (centres undefined) [CITALOPRAM], the AC50 at D(4) dopamine receptor was greater than 10 µM; in assay [4], greater than 30 µM; on Estrogen receptor beta it was greater than 30 µM; on Glucagon receptor, greater than 30 µM; in [5], greater than 10 µM; in assay [9], greater than 10 µM. Further, the AC50 at Substance-P receptor was greater than 10 µM.

For `C[C@H](Nc1ncnc2[nH]cnc12)c1cc2cccc(Cl)c2c(=O)n1-c1ccccc1` [DUVELISIB], the AC50 on D(1A) dopamine receptor [13] is greater than 30 µM.

On to `O=C(O)[C@@H](S)[C@@H](S)C(=O)O`, for which the AC50 on D(1A) dopamine receptor [13] is greater than 30 µM.

Consider `CC#CC(=O)N1CCC[C@H]1c1nc(-c2ccc(C(=O)Nc3ccccn3)cc2)c2c(N)nccn12` [ACALABRUTINIB], for which the AC50 (on D(1A) dopamine receptor [13]; in [12]) was greater than 30 µM throughout.

Take `N#Cc1ccnc(N2C(=O)CC[C@H]2C(=O)N(c2cncc(F)c2)[C@H](C(=O)NC2CC(F)(F)C2)c2ccccc2Cl)c1` [IVOSIDENIB]: the AC50 in assay [7] is greater than 50 µM.

Turning to `C#CCN(C)Cc1ccccc1` [PARGYLINE], the AC50 at Histamine H1 receptor [14], on D(1A) dopamine receptor [13] and at Histamine H1 receptor [15] was greater than 30 µM each time.

Consider `CCOC(=O)[C@H](CCc1ccccc1)N[C@@H](C)C(=O)N1Cc2ccccc2C[C@H]1C(=O)O`, for which the AC50 at D(4) dopamine receptor is greater than 10 µM; in assay [4], greater than 30 µM; at Estrogen receptor beta it was greater than 30 µM; at Glucagon receptor, greater than 30 µM; on Cannabinoid receptor 1 it was greater than 10 µM; in assay [10], greater than 10 µM. Further, the AC50 (in assay [5]; on D(1A) dopamine receptor [6]; in [11]; on Substance-P receptor; in assay [8]) was greater than 10 µM each time.

The compound `CCCCCCO[C@@H](C)c1cccc(-c2csc(NC(=O)c3cc(Cl)c(/C=C(\C)C(=O)O)c(Cl)c3)n2)c1OC` [LUSUTROMBOPAG] displayed an AC50 at D(1A) dopamine receptor [13] of 5.53 µM.

As to `O=C(Cc1cccs1)N[C@@H]1C(=O)N2C(C(=O)[O-])=C(C[n+]3ccccc3)CS[C@H]12` [CEPHALORIDINE], the AC50 at D(1A) dopamine receptor [13] is greater than 30 µM.

For `OCCOCCN1CCN(C(c2ccccc2)c2ccc(Cl)cc2)CC1` (centres undefined) [HYDROXYZINE], the AC50 at D(4) dopamine receptor was 8.54 µM; at Histamine H1 receptor [14] it was 0.45 µM; in assay [4], greater than 30 µM; at Glucagon receptor, greater than 30 µM; in [10], 2.2 µM; in assay [5], greater than 10 µM. The AC50 was greater than 10 µM in [9]; greater than 10 µM at D(1A) dopamine receptor [6]; greater than 30 µM at Histamine H1 receptor [15]; 6.8 µM in assay [11]; greater than 10 µM on Substance-P receptor.

Take `CC(=O)NC[C@H]1CN(c2ccc(N3CCOCC3)c(F)c2)C(=O)O1` [LINEZOLID]: the AC50 in [7] is greater than 50 µM.

In the case of `CC(=O)SCC(Cc1ccccc1)C(=O)NCC(=O)OCc1ccccc1` (centres undefined) [RACECADOTRIL], the AC50 (in assay [5]; at D(1A) dopamine receptor [6]) was greater than 10 µM throughout.

In the case of `CCOc1ccccc1OCCN[C@H](C)Cc1ccc(OC)c(S(N)(=O)=O)c1` [TAMSULOSIN], the AC50 in [2] was determined as 0.79 µM.

As for `CN(C)CCc1c[nH]c2ccc(CS(=O)(=O)N3CCCC3)cc12` [ALMOTRIPTAN], the AC50 on Histamine H1 receptor [14] and at Histamine H1 receptor [15] was greater than 30 µM each time.

Take `CC(C)/N=c1\cc2n(-c3ccc(Cl)cc3)c3ccccc3nc-2cc1Nc1ccc(Cl)cc1` [CLOFAZIMINE]: in [1], the AC50 is greater than 30 µM.

Consider `NCC1(CC(=O)O)CCCCC1` [GABAPENTIN], for which the AC50 on D(4) dopamine receptor was greater than 10 µM; in [2], greater than 30 µM; on D(1A) dopamine receptor [3], greater than 30 µM; in assay [4], greater than 30 µM; on Glucagon receptor, greater than 30 µM; at Cannabinoid receptor 1, greater than 10 µM. Moreover, the AC50 in assay [10] was greater than 10 µM; on D(1A) dopamine receptor [6] it was greater than 10 µM; in assay [11], greater than 10 µM; at Substance-P receptor, greater than 10 µM; in [12], greater than 30 µM; in assay [8], greater than 10 µM.

In the case of `CCOC(=O)Nc1ccc(NCc2ccc(F)cc2)nc1N` [FLUPIRTINE], the AC50 in [1] is greater than 30 µM.

As for `Nc1nnc(-c2cccc(Cl)c2Cl)c(N)n1` [LAMOTRIGINE], the AC50 was greater than 10 µM on D(4) dopamine receptor; greater than 50 µM in [7]; greater than 30 µM in [4]; greater than 30 µM at Estrogen receptor beta; greater than 30 µM at Glucagon receptor; greater than 10 µM in assay [5]. In addition, the AC50 (in assay [9]; at D(1A) dopamine receptor [6]; at Substance-P receptor) was greater than 10 µM throughout.
